Reference: patent US5990078A, “Means of increasing estrogen receptor levels in neural tissue” (The Trustees of Columbia University in the City of New York, priority 1996, dated 1999)
“Also recorded” adds a separate entry of the source.

How the values were obtained:
[1] = tested on: PC12-E2 cells; assay: Morphological study of neurite growth in PC12-E2 cells; type: cell-based
Description: (§1) It has been previously reported that wild-type, differentiated PC12 pheochromocytoma cells express very low levels of estrogen receptors. Here it is reported that a PC12 cell variant, PC12-E2 (Wu, Bradshaw, J. Cell Physiol. 164:1995), is estrogen responsive and expresses high estrogen receptor level (≈50% of the levels observed in estrogen receptor over-expressing MCF-7 cells). Moreover, although tyrosine phosphorylation of the estrogen receptor appeared to be expressed constitutively, these cells responded to added estrogen. PC12-E2 responsiveness to estrogen was determined morphologically and by measuring estradiol-induced ERK activation. […] Preliminary co-precipitation experiments show an association between src and estrogen receptor, src with MEK (MAP Kinase/ERK-activating Kinase), and MEK with B-raf, MEK, which phosphorylates the ERKs on tyrosine residues, is known to exist as a complex consisting of at least hsp90 and B-raf.

[2] = tested on: ERK; assay: ERK stimulation in wild-type, differentiated PC12 cells; type: cell-based
[3] = tested on: trkA mRNA; conditions: adult female rat DRG neurons in vivo [90]; listed as estrogen; cited from earlier work
[4] = tested on: ERKs 1 and 2; assay: ERK activation in PC12-E2 cells; type: cell-based
Description: as §1

[5] = tested on: trk receptors; assay: Tyrosine phosphorylation of the trk receptors, cortical explants; type: cell-based
Description: (§2) Estrogen and the neurotrophins have important roles in the developing and adult central nervous system (CNS). […] The hypothesis that estrogen/neurotrophin receptor co-expression leads to reciprocal regulation at the level of signal transduction, through cross-coupling of converging estrogen and neurotrophin signaling pathways whose end-points in the nucleus may be the very same genes was tested. Postnatal day 2 cerebral cortex was maintained as organotypic explants in roller tube culture for 7 days.

[6] = tested on: p75^NGFR mRNA; conditions: adult female rat DRG neurons in vivo [90]; cited from earlier work
[7] = tested on: ERKs; assay: In-gel kinase assay of ERKs with MBP as substrate, cortical explants; type: cell-based
Description: as §2

[8] = tested on: PC12 cells; assay: Morphology / neurite differentiation of PC12 cells; type: cell-based, rat; conditions: estrogen exposure
[9] = tested on: ERKs 1 and 2; assay: Tyrosine phosphorylation of ERKs 1 and 2 in cerebral cortical explants; type: cell-based; conditions: P2 cortical explants
Description: as §2

[10] = tested on: p75^NGFR mRNA; assay: Northern blot analysis of p75NGFR mRNA in PC12 cells; type: cell-based, rat; conditions: NGF-treated PC12 cells
Description: PC12 cells were cultured on collagen-coated coverslips or tissue culture dishes in phenol red-free RPMI 1640 (Gibco BRL) nutrient medium supplemented with 10% (heat-inactivated) gelded (steroid-deficient) horse serum (JRH Biological), according to a modification of standard procedures. In these experiments, fetal calf serum, which contains physiologic levels of estrogen, (32 pg/ml) was not used.
Total RNA, prepared by a modification of the Chomczynski and Sacchi method, was size-fractionated (10-20 μg/lane) on a 1.2% agarose-18% formaldehyde gel and capillary-transferred to nylon membrane (Hybond-N; Amersham). Filters were prehybridized (4-18 h) and hybridized (36-40 h) at 42° C. in 50% Formamide, 3× SSC, 0.1M Tris, 5× Denhardt's and 10% Dextran Sulfate. Probes were labeled with [α-^32 P]-dCTP by the random priming procedure (Random Priming kit, Boehringer Mannheim). trkA mRNA was identified by hybridization with pDM97, a 450 bp trkA-specific probe corresponding to the extracellular and transmembrane domains of the trkA gene [67; gift of L. F. Parada, NCI-FCRDC]. p75^NGFR was probed by hybridization with p5b, a 2 Kb probe corresponding to the extracellular domain of the p75^NGFR gene. Blots were washed first in 0.2×SSC and 0.5% SDS briefly at room temperature and then for 2 h at 60° C., with frequent changes of wash buffer. Filters were then exposed to film (Kodak X-Omat) between intensifying screens and stored at -70° C. for 1-4 days before developing.
Using a standard densitometry package (Jandel Scientific), optical density measurements were obtained from X-ray film. trkA and p75^NGFR transcript densities were normalized to an internal control to account for variation in the amount of RNA loaded.
Total RNA was analyzed by Northern blot analyses, using ^32 P-labeled cDNA probes for trkA and p75^NGFR.

[11] = tested on: estrogen receptor mRNA; assay: Semiquantitative RT-PCR of estrogen receptor mRNA in cortical and basal forebrain explant cultures; type: cell-based, rat; conditions: cortical and basal forebrain explants, hrNGF 100 ng/mL
Description: Time-pregnant rats (Sprague-Dawley) were obtained from Zivic (Miller, Pa.). Organotypic explant cultures were obtained from postnatal day (P) 2 rat brains (P1=day of birth) of both sexes. Brains were slice coronally into 360-μm thick sections using a brain slicer (Toran-Allerand, 1990). A total of four coronal sections from the periseptal region were isolated and dissected into four pairs of hemicoronal cortical [cingulate and neocortex, FIG. 6(a)] and basal forebrain [septum, nuclei of the diagonal band of Broca and ventral pallidum, FIG. 6(b)] sections. Hemicoronal explants were maintained in roller tube assemblies (Caeser et al., 1989; Gahwiler et al., 1991), on collagen coated coverslips for 8 days in vitro, in serum supplemented (25% gelded horse serum, JRH), steroid deficient and phenol red free medium containing 50% basal medium (Eagle's), 25% Hank's balanced salt solution (HBSS), and 0.65% glucose. […] Cultures were fed 3 times a week.
Estrogen receptor mRNA expression was assessed by semiquantitative RT-CPR, using RNA isolated from pooled cortical (two explants pooled/sample) and basal forebrain (four explants pooled/sample) cultures. PCR primers (gift of B. Schachter, Mount Sinai Hospital) were designed to amplify a 300 base pair (bp) sequence from the region coding for the ligand binding domain (Sohrabji et al., 1994b). […]

[12] = target: T1, estrogen receptor (Rattus norvegicus, UniProt P06211); assay: Modified nuclear binding assay, basal forebrain explant cultures; type: cell-based; design: endogenous in cells; conditions: P2 rat basal forebrain explants, 8 days in vitro, hrNGF 100 ng/mL
T1 sequence (P06211 1-600): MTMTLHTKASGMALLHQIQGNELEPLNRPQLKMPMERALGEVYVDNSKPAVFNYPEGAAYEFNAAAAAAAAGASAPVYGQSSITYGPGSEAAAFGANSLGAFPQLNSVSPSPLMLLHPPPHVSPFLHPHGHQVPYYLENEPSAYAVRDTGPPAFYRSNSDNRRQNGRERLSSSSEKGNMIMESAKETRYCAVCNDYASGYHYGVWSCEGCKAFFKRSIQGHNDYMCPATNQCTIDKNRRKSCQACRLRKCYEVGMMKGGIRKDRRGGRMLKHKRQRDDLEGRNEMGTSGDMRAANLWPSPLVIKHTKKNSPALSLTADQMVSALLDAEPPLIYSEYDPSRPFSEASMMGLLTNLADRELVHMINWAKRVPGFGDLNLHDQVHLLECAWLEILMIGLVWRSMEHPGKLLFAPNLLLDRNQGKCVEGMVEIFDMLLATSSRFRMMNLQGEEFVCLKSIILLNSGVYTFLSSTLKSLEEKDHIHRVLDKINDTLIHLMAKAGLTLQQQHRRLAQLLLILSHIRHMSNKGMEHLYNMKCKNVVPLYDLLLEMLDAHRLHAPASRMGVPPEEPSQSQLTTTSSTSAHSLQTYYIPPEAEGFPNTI
Description: (§3) Time-pregnant rats (Sprague-Dawley) were obtained from Zivic (Miller, Pa.). Organotypic explant cultures were obtained from postnatal day (P) 2 rat brains (P1=day of birth) of both sexes. Brains were slice coronally into 360-μm thick sections using a brain slicer (Toran-Allerand, 1990). A total of four coronal sections from the periseptal region were isolated and dissected into four pairs of hemicoronal cortical [cingulate and neocortex, FIG. 6(a)] and basal forebrain [septum, nuclei of the diagonal band of Broca and ventral pallidum, FIG. 6(b)] sections. […]
Nuclear receptor binding sites were identified using previously published protocols (Sohrabji et al., 1994a,b) and were standardized for this experiment using both MCF-7 cells and hypothalamic tissue. […] Radioactivity was eluted from nuclear pellets with 95% ethanol (moxestrol is completely soluble in >50% ethanol) and the radioactivity counted in a liquid scintillation counter. […] Specific binding was determined as the difference between total binding and non-specific binding (in the presence of an unlabeled competing ligand) and the data expressed as femtomoles of specifically bound [^3 H] -moxestrol/mg DNA. […]

[13] = tested on: estrogen receptor mRNA; assay: Isotopic in situ hybridization of estrogen receptor mRNA in cortical explant cultures; type: cell-based, rat; conditions: cortical explants, hrNGF 100 ng/mL
Description: as §3
Estrogen receptor mRNA was detected in cerebral cortical cultures in using […] oligonucleotide probes complementary to a sequence within rat estrogen receptor mRNA coding for hormone binding domain (Miranda et al., 1993b, 1994; Miranda and Toran-Allerand, 1992; Toran-Allerand et al., 1992b). […] Isotopically (^35 S)-labeled hybrids were detected in whole explant cultures by desiccating the cultures and apposing them to autoradiographic film (Kodak X-omat). The intensity of mRNA expression was quantified as the density of film exposure over the explant divided by the density over background using a standard morphometrics package (Jandel Scientific).

Row | Compound | Neurite outgrowth [1] | Estradiol-induced ERK stimulation [2] | Increase in trkA mRNA [3] | Time to tyrosine phosphorylation of ERKs 1 and 2 [4] [min] | Tyrosine phosphorylation of the trk receptors [5] | p75NGFR mRNA [6] | Activity of phosphorylated ERKs in phosphorylating MBP vs untreated controls [7] | Effect on morphology / neurite differentiation [8] | Persistence of tyrosine phosphorylation of the ERKs [9] | Time of maximal tyrosine phosphorylation of the ERKs [9] [min] | Onset of tyrosine phosphorylation of the ERKs ([9]; 24 hrs estrogen and neurotrophin deprivation) [min] | p75NGFR mRNA level ([10]; 1 day after estrogen treatment) | p75NGFR mRNA level ([10]; 3 days of estrogen exposure) | p75NGFR mRNA level ([10]; 3 days of estrogen exposure, 4320 min) | p75NGFR mRNA level ([10]; 7 days of estrogen treatment) | Estrogen receptor mRNA (normalized to cyclophilin mRNA) vs control [11] | Density of estrogen binding sites [12] | Estrogen receptor mRNA, density of hybridization signal [13]
1 | C[C@]12CC[C@@H]3c4ccc(O)cc4CC[C@H]3[C@@H]1CC[C@@H]2O [estradiol, 17-β estradiol] | little effect | no estradiol-induced ERK stimulation was observed | two to three-fold | ≤ 15 | induced tyrosine phosphorylation | transient decrease | much more active | no readily visible effects; also recorded: did not appear to influence visibly | at least 4 hrs. | 30 | ≤ 5 | below basal levels | decreased by half | approximately 50 % of baseline | indistinguishable from basal levels; also recorded: no different from basal levels |  |  | 
2 | hrNGF: human recombinant NGF (gift of Louis Burton, Genetech) |  |  |  |  |  |  |  |  |  |  |  |  |  |  |  | no different; also recorded: did not lead to an alteration | did not significantly alter and not | No alterations; also recorded: did not lead to an alteration
